Results on four compounds are retold here after patent publication US12692268B2 (priority 2020, dated 2026).

The target in assay [1] is T1, JNK3 (Homo sapiens, UniProt P53779). Put plainly: biochemical.
For a further assay, the target named is JNK2 (Homo sapiens, UniProt P45984). The assay can be described thus: Kinase panel screening, single dose 10 μM. Conditions: single dose concentration of 10 μM; read-out: inhibitory activity for JNK2. The assay is classed as biochemical.
A further assay concerns the target RIPK3 (Homo sapiens, UniProt Q9Y572). Put plainly: Kinase panel screening, single dose 10 μM. The note with it: single dose concentration of 10 μM; read-out: inhibitory activity for RIPK3. The assay is classed as biochemical.
Assay [2] concerns the target T1, JNK3. The assay can be described thus: Kinase panel screening, single dose 10 μM. In kind it is biochemical. The note with it: single dose concentration of 10 μM; read-out: inhibitory activity for JNK3.
The next assay has as its target GSK-β (Homo sapiens, UniProt P49841). The assay can be described thus: Kinase panel screening, single dose 10 μM. The assay is classed as biochemical. The note with it: single dose concentration of 10 μM; read-out: inhibitory activity for GSK-β.

pIC50: −log10 of the molar value. Where two headings read alike, the source gives them in different places.

T1 sequence (P53779 whole entry): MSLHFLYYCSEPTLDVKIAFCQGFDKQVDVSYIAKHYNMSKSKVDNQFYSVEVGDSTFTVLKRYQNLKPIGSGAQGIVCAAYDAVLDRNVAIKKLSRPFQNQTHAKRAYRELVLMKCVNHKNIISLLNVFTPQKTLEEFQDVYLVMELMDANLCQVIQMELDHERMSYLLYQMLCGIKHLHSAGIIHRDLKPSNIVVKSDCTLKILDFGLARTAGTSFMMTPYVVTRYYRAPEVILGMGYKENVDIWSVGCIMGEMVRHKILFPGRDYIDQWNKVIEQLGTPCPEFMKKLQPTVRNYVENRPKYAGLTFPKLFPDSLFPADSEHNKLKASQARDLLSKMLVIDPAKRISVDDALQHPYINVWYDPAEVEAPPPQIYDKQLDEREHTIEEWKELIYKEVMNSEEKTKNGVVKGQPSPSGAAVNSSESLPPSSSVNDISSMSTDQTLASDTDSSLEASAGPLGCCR
Sequence of GSK-β (P49841 whole entry): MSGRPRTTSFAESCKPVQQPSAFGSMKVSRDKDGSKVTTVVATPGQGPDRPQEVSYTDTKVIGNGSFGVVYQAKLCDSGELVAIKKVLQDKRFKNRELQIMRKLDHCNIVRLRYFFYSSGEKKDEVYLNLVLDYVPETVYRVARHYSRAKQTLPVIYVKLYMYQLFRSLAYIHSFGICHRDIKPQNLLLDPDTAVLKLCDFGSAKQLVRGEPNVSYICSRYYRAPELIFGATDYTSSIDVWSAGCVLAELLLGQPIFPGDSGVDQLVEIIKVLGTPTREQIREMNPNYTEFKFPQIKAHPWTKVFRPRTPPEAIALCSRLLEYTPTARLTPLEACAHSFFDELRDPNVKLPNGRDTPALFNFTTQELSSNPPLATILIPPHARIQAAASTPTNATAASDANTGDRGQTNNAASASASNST
Sequence of RIPK3 (Q9Y572 whole entry, species assumed): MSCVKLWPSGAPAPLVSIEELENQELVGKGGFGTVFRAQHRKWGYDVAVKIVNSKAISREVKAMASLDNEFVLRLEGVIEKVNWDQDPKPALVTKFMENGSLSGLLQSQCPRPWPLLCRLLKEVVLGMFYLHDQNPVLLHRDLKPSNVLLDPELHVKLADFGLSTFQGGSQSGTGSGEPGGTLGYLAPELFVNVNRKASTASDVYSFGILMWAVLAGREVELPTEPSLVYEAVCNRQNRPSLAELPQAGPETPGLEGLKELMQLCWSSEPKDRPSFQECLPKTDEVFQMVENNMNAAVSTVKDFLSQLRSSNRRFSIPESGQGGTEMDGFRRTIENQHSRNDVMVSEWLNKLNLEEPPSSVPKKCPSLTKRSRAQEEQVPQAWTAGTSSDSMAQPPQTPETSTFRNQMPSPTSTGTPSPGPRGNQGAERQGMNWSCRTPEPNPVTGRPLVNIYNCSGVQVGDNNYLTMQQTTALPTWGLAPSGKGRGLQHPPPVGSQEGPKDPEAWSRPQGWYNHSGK
Sequence of JNK2 (P45984 whole entry, species assumed): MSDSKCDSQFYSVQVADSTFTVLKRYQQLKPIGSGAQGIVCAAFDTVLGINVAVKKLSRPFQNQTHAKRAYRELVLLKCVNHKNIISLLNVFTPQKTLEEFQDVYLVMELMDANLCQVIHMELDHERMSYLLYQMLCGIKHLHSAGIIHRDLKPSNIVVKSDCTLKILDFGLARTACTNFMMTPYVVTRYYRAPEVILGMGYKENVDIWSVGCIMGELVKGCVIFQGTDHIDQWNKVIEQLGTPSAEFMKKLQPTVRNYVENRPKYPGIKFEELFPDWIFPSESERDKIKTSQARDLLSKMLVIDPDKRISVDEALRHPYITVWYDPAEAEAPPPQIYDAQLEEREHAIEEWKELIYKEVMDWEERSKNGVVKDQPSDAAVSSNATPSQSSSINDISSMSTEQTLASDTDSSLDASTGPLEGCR

As for `O=C(C1CC1)N1CCC[C@H](Nc2nccc(-n3c(-c4ccc(Cl)c(Cl)c4)nc4c3CN(C(=O)N3CCC(O)CC3)C4)n2)C1` [Compound 16a, (S)-(1-(2-((1-(cyclopropanecarbonyl)piperidin-3-yl)amino)pyrimidin-4-yl)-2-(3,4-dichlorophenyl)-4,6-dihydropyrrolo[3,4-d]imidazol-5(1H)-yl)(4-hydroxypiperidin-1-yl)methanone], the pIC50 on JNK3 [1] was > 7.52. As to `NC(=O)N1Cc2nc(-c3ccc(Cl)c(Cl)c3)n(-c3ccnc(N[C@H]4CCCN(C(=O)C5CC5)C4)n3)c2C1` [Compound 16b, (S)-1-(2-((1-(cyclopropanecarbonyl)piperidin-3-yl)amino)pyrimidin-4-yl)-2-(3,4-dichlorophenyl)-4,6-dihydropyrrolo[3,4-d]imidazole-5(1H)-carboxamide], the pIC50 on JNK3 [1] (JNK3 enzyme activity, Table 1, read-out: IC50) is > 7.52. As to `NC(=O)N1Cc2nc(-c3ccc(Cl)c(Cl)c3)n(-c3ccnc(N[C@@H]4CCN(C(=O)C5CC5)C4)n3)c2C1` [Compound 16c, (R)-1-(2-((1-(cyclopropanecarbonyl)pyrrolidin-3-yl)amino)pyrimidin-4-yl)-2-(3,4-dichlorophenyl)-4,6-dihydropyrrolo[3,4-d]imidazole-5(1H)-carboxamide], the inhibition at 10 µM stood at 100% at JNK2, 50% on RIPK3, 100% at JNK3 [2] and 70% on GSK-β. For the compound `NC(=O)N1Cc2nc(-c3ccc4c(c3)OCO4)n(-c3ccnc(N[C@H]4CCCN(C(=O)C5CCC5)C4)n3)c2C1` [Compound 16m, (S)-2-(benzo[d][1,3]dioxol-5-yl)-1-(2-((1-(cyclobutanecarbonyl)piperidin-3-yl)amino)pyrimidin-4-yl)-4,6-dihydropyrrolo[3,4-d]imidazole-5(1H)-carboxamide], at JNK3 [1] (JNK3 enzyme activity, Table 2, read-out: IC50), the negative-log IC50 (pIC50) is 5.00 to 7.00.

As usually defined, the pIC50 is the IC50 on a negative log10 scale, so that one unit is a factor of ten.
